Data published in a melting point compilation (Tetko et al.; mined from patent text by program, amines drawn as free bases though some values may be those of a salt).

Row | melting point [°C] | Structure (SMILES)
1 | 116 to 118 | Cn1c(=O)ccc2cc(-c3cccnc3)ccc21
2 | 116 to 120 | COc1cccc(C(O)CN(C)Cc2cc3c(=O)c(C(=O)NCc4ccc(Cl)cc4)cn(C)c3o2)c1 (stereo not given)
3 | 133 to 135 | O=C(c1ccc(-n2cccn2)nc1Cl)N1Cc2cccn2Cc2ccccc21
4 | 136 | CC(C)(C)c1c(OCc2ccccc2)ccc2oc(C=O)cc12
5 | 146 to 149 | Cn1cc(CO)c(=O)c2ccc(C(C)(C)C)cc21
6 | 111 to 113 | CCOC(=O)C1Cc2c(ccc(OC)c2OCc2ccccc2)CN1C(=O)C(c1ccccc1)c1ccccc1 (racemic)
7 | 174 to 176 | O=C(NCc1ccccc1Cl)c1cccnc1Oc1cccnc1
8 | 174 to 176 | COc1ccc(S(=O)(=O)Nc2cccnc2Nc2ccc(Oc3ccccc3)cc2)cc1
9 | 144 to 145 | Cn1c(CCCCN2CCN(c3cc(C(C)(C)C)nc(C(C)(C)C)n3)CC2)nnc1-c1ccccc1
10 | 106 to 108 | CCN(CC)Cc1ccc2[nH]c(C)c(C(=O)OCc3ccccc3)c2c1
11 | 130 to 132 | COc1ccc2cc(CC[Si](C)(C)C)c(=O)oc2c1
12 | 140 to 141 | Cc1nc(N2CCCC(CCCc3ccccc3)C2=O)sc1C(=O)NCc1ccccc1 (stereo not given)
13 | 159 | Cc1ccc(O)c(Cn2c(NC3CCNC(CCN4CCOCC4)C3)nc3ccc(CCc4ccccc4)cc32)n1 (stereo not given)
14 | 40 to 42 | COCOc1ccccc1OCBr
15 | 108 to 109 | CCS(=O)(=O)CCC(=O)NCC(=O)N1Cc2ccccc2Oc2ccc(Cl)cc21
16 | 125 to 128 | CCCCc1nn(-c2cc(NC(C)=O)ccc2Cl)c(=O)n1Cc1ccc(-c2cc(CCC)ccc2S(=O)(=O)NC(C)(C)C)cc1F
17 | 205 | COc1ccc(CNc2nc(CCCC(=O)O)nc3oc4c(c23)CCCC4)cc1Cl
18 | 95 | O=C1C=CC(c2cccc(F)c2)(c2cccc(F)c2)CC1
19 | 72 to 74 | CCc1oc2ccccc2c1C(=O)c1ccc(OCC(=O)OC)cc1
20 | 93 to 94 | CCCCS(=O)(=O)C1CC(=O)N1CC(=O)CCc1ccccc1 (stereo not given)
21 | 195 to 196 | Clc1nc(OCc2ccccc2)c2[nH]cnc2n1
22 | 152 to 153 | COc1cccc(OC)c1Cc1c(Cl)ncnc1Cl
23 | 47 | O=C(CCl)c1ccc(-c2ccccc2Cl)cc1
24 | 86 to 89 | CCOC(=O)[C@H](Cc1ccc(-c2c(OC)cc(CN3CCSCC3)cc2OC)cc1)NC(=O)c1c(Cl)cccc1Cl
25 | 291 to 292 | Cc1sc2[nH]c(=O)n(Cc3ccc(Cl)cc3)c(=O)c2c1C
26 | 159 | OC1CCCc2nc3ccccc3c(NCc3ccccc3)c21 (stereo not given)
27 | 209 to 211 | Cn1c(=O)oc2c(O)cccc21
28 | 205 to 207 | Cc1c(C)c2c(c(C)c1O)CCC(C)(COc1ccc(CC3SC(=N)NC3=O)cc1)O2 (stereo not given)

Row | melting point [°C] | Structure (SMILES)
29 | 196 to 198 | Cc1cc(OC/C=C/c2ccc(F)cc2)c(C)c(C)c1NC=O
30 | 150 to 152 | COc1cc(CCC(=O)O)ccc1OCc1sc(-c2ccc(C(F)(F)F)cc2)nc1C
31 | 203 | Cc1nn(C)c(NC(=O)Nc2ccccc2)c1C1=CCCCC1
32 | 106 to 107 | CCOC(=O)c1ncoc1-c1ccc([N+](=O)[O-])cc1OC
33 | 189 to 192 | CNC(=S)NS(=O)(=O)c1cc(CCNC(=O)c2cc(Cl)ccc2OC)ccc1-c1ccc(Cl)cc1
34 | 166 to 167 | CCn1cc(C(=O)O)c(=O)cc1-c1ccccc1
35 | 195 to 197 | O=C(O)C(=O)Nc1coc2ccccc2c1=O
36 | 116 to 117 | CC(C)(C)c1cc(CCNCc2cccc(NC(=N)c3cccs3)c2)cc(C(C)(C)C)c1O
37 | 55 to 57 | CCOCCc1ccc(OCCNc2ncnc3scc(C)c23)c(C)c1
38 | 287 | CCC(=O)Nc1cccc2c1C(=O)c1c-2n[nH]c1-c1ccc(OC)cc1
39 | 208 to 213 | COC(=O)c1ccc2oc(C(=O)C(Cc3ccccc3)NC(=O)Cn3c(-c4ccc(F)cc4)ncc(N)c3=O)nc2c1 (stereo not given)
40 | > 300 | O=C(O)c1c2c(nc3ccc(F)cc13)-c1ccc(-c3ccccc3F)cc1CCCC2
41 | 235 to 236 | Cc1nc(-n2cnn(CCOCc3ccc(F)cc3)c2=O)sc1C(=O)NCc1cccnc1
42 | 78 to 79 | N#Cc1c(F)cccc1-c1ccccc1
43 | 237 to 238 | COc1cc(C(=O)O)ccc1Cn1ccc2ccc(NC(=O)OC3CCCC3)cc21
44 | 194 to 196 | Cc1cccc(-n2c(-c3cc(-c4ccccc4)c(N4CCOCC4)s3)nc3ccccc3c2=O)c1
45 | 176 to 178 | COc1ccc(-c2ccc3c(c2)c2ccc(Cl)nc2n3S(=O)(=O)c2ccccc2)cc1
46 | 92 to 93 | CCn1c(=O)ccc2cnc(Nc3cccc(F)c3OC)nc21
47 | 237 to 238 | Cc1ccc(-c2cc(=O)cc(C(=O)O)o2)cc1
48 | 278 to 280 | O=c1ccc2c(-n3cnc(Br)c3)nccc2[nH]1
49 | 173 to 175 | COc1ccc(C2(c3ccc(OC)cc3)CC2(Br)Br)cc1
50 | 118 to 123 | NC(=O)c1cc(C(=O)CN(Cc2ccccc2)Cc2ccccc2)ccc1OCCCCOC1CCCCO1 (stereo not given)
51 | > 300 | Cc1ccc(N2C(=O)C(O)=C(C(=O)c3ccc(C(C)C)cc3)C2c2ccc(Cn3cnnn3)cc2)nn1 (stereo not given)
52 | 255 to 256 | CSc1ccc(-c2coc3ccc(-c4nnc(N)o4)cc23)cc1
53 | 163 to 165 | COc1cccc(CCc2c(CCNC(=O)CCCCC(=O)NCCc3ccc(N)cc3)ccc(OC)c2OC)c1
54 | 166 to 168 | O=C(O)[C@H](Cc1cccs1)NN1C(=O)c2ccccc2C1=O
55 | 85 to 95 | COc1cccc(CNc2ccc(C(C)=O)cc2)c1OCCCC(=O)O

The remaining lines, values behind:

Row | Structure (SMILES) | melting point [°C]
56 | O=C(N[C@@H]1C2CCN(CC2)[C@H]1Cc1cccnc1)c1cc2ccccc2o1 | 134 to 139
57 | CCN(CC)CC(O)CONC(=O)NC(C)(C)C (stereo not given) | 58 to 61
58 | N#Cc1cnn(-c2ccc(C(F)(F)F)cc2[N+](=O)[O-])c1N | 234 to 236
59 | CCOC(=O)c1[nH]c(C)nc1C(=S)OCC | 119 to 121
60 | CCCCc1ccc(C(=O)NCc2cccc3c2C(=O)N(C2CCC(=O)NC2=O)C3=O)nc1 (stereo not given) | 137 to 139
61 | O=C(Cn1c(-c2ccc(Br)cc2)nc2cccnc21)N1CCCCC1 | 175 to 176
62 | COc1cc(OC)c(F)c(N2Cc3cnc(SC)nc3N(C3CCCC3)C2=O)c1F | 167 to 169
63 | CN1CCN(Cc2ccccc2Cl)C(C2=NCCO2)C1 (stereo not given) | 96.8
64 | CCCCN(CC)c1cc(C)nc(Sc2c(C)cc(C)cc2C)c1 | 110 to 112
65 | COc1ccc([N+](=O)[O-])c2c1OCC(C(=O)O)C2 (stereo not given) | 181 to 183
66 | CCCCCCOc1cc(C=O)c(OCCCCCC)cc1C=O | 74.5 to 76
67 | O=C(O)CCCC(=O)ON1C(=O)CCC1=O | 81 to 83
68 | CCN(CC)S(=O)(=O)c1cc(Cl)cc(O)c1O | 62 to 64
69 | O=C(Oc1ccc(Oc2ccc(C(F)(F)F)cn2)cc1)N1CCN(CCc2cccnc2)CC1 | 173 to 179
70 | NS(=O)(=O)OCCOc1cccc(OCCOS(N)(=O)=O)c1 | 147 to 149
71 | CCCc1nn(-c2ccc(C(F)(F)F)cn2)cc1CCCOc1cc(CCC(=O)O)n(C)n1 | 80 to 81
72 | Cc1cc2c(cc1C(O)c1c(C(F)(F)F)ccnc1Cl)OCO2 (stereo not given) | 127 to 130
73 | CCCCCCCCCCCCOc1ccc(C(=O)Oc2ccc(C(=O)OC3CCC(CCC)(CCC)OC3=O)cc2)cc1 (stereo not given) | 91
74 | Cn1cc(C(=O)N=C=O)c([N+](=O)[O-])n1 | 55 to 59
75 | COC(=O)c1ccc(/C=C/C(=O)NOC2CCCCO2)cc1 (stereo not given) | 133
76 | COC(=O)c1cc(Cl)sc1N | 99 to 101
77 | CCCN(C)C(C)CN1CCc2c(c(=O)oc3cc(OC)c(OC)cc23)C1 (stereo not given) | 81 to 85
78 | COc1cc2c(cc1OC)CC(C(=O)N1CCN(C(=O)c3cc(OC)c(OC)c(OC)c3)CC1)=C2 | 183 to 185

Row | Structure (SMILES) | melting point [°C]
79 | COc1cc(C)c(C(=O)O)c(OC)c1OC | 95 to 97
80 | Clc1cn2cc(Cl)c(Cl)c(Cl)c2n1 | 232 to 233
81 | CC(C)Cc1ccc(C(=O)O)c(=O)n1C | 118 to 119
82 | Nc1cnc2ccc(Cl)cc2n1 | 219 to 222
83 | CCOC(=O)CC1NCCN(CCc2c[nH]c3ccc(Cl)cc23)C1=O (stereo not given) | 136
84 | O=C1NC(=O)c2c1c1c3ccc(F)cc3[nH]c1c1c2c2ccc(F)cc2n1C1OC2COC(C2O)C1O (stereo not given) | > 300
85 | Cc1csc(C)c1S(=O)(=O)Cl | 79
86 | CN1CCN(c2cc3nc4c(cc3cc2F)c(=O)c(C#N)cn4C)CC1 | 335
87 | NC(=O)C(CCCCCCCCNC(=O)c1ccccc1O)CC(=O)O (stereo not given) | 123 to 125
88 | NC(=O)COc1ccc([N+](=O)[O-])cc1 | 153 to 155
89 | O=[N+]([O-])c1ccc(-n2cnc(CO)c2)c(F)c1 | 157 to 159
90 | Cc1nc(CO)c(CO)[nH]1 | 182
91 | CCCCCc1nc(-c2ncn3c2COC(=O)c2c(Cl)cccc2-3)no1 | 110 to 112
92 | CCCCOCCOc1ccc(-c2ccc3c(c2)C=C(C(=O)Nc2ccc(CP4(=O)OCCCO4)cc2)CCS3(=O)=O)cc1 | 222 to 223
93 | Cc1ccc(C)c(SCCCCCC(=O)O)c1 | 61 to 62
94 | CC1=C(/C=C/C(=O)N2CCN(C(N)=O)CC2)C(C)(C)CCC1 | 144
95 | CC1=C(CC(=O)O)c2cc(F)ccc2C1 | 164 to 166
96 | Cn1cccc1-c1nc2c(N[C@H]3[C@@H](C(N)=O)[C@@H]4C=C[C@H]3C4)c(Br)cnc2[nH]1 | 293 to 295
97 | N#Cc1cnc2cc(F)c(OCCN3CCOCC3)cc2c1Cl | 163 to 164
98 | CS(=O)(=O)OCCN(CCCl)c1ccc([N+](=O)[O-])c(C(=O)NCCCO)c1[N+](=O)[O-] | 104 to 109
99 | N=C(N)c1ccc(N2CCN(c3ccc(S(=O)(=O)CC(=O)O)cc3)C2=O)cc1 | > 260
100 | CN(C(=O)c1ccc2nonc2c1)C1CCN(C(=O)OC(C)(C)C)CC1 | 98 to 100
